Laboratory results as given in EP1525798B1, “Carbohydrate oxidase and use thereof in baking” (Novozymes A/S, priority 1997, dated 1999).

What follows are compounds tested on T1, carbohydrate oxidase from M. nivale (Microdochium nivale CBS 100236, SEQ ID NO: 2), wild type (assay: Steady state kinetics (apparent Km) by the 4AA-TOPS assay). Settings: apparent value from Lineweaver-Burke plot, simple Michaelis-Menten kinetics assumed, carbohydrate substrate concentration varied, phosphate/citrate pH 6.
T1 construct: made in house
Assay type: biochemical
Method: Assays are carried out in 96 well microtiter plates. 100 µl 0.1 M phosphate/citrate, pH 6 is mixed with 50 µl 0.24 M glucose and 50 µl pre-mix (3 mM 4-aminoantipyrine (4AA), 7 mM N-ethyl-N-sulfopropyl-m-toluidine (TOPS), 40 PODU/ml rCiP) and the reaction is started by adding 40 µl of oxidase solution diluted appropriately. Absorption is measured at 490 nm as a function time using the Vmax microtiter plate ready from Molecular Devices and the activity is taken as the slope of the linear increase in absorption.
Steady state kinetics was conducted by varying the concentration of the carbohydrate substrates and determining the carbohydrate oxidase activity by the 4AA-TOPS assay. Simple Michaelis-Menten kinetics was assumed although the reaction is not a simple one substrate-one product mechanism (E+S↔ES↔E+P).
The steady state kinetics for the carbohydrate oxidase from M. nivale were investigated using some of the preferred substrates. Kinetic constants were obtained from a Lineweaver-Burke plot, assuming simple Michaelis-Menten kinetics (although this is a rather poor assumption) to obtain apparent values "Km" and "Vmax" for various substrates.
Work on `OC[C@H]1OC(O)[C@H](O)[C@@H](O)[C@@H]1O` (stereo partly drawn) [Glucose] yielded a Km of 42 mM.
In the case of `OC[C@H]1O[C@H](O[C@H]2[C@H](O)[C@@H](O)C(O)O[C@@H]2CO)[C@H](O)[C@@H](O)[C@@H]1O` (mixture of isomers) [Maltose], the Km is reported as 11 mM.
Work on `O=C[C@H](O)[C@@H](O)[C@H](O[C@@H]1O[C@H](CO)[C@@H](O)[C@H](O)[C@H]1O)[C@H](O)CO` [Cellobiose] yielded a Km of 59 mM.
